Results published in patent US8168832B2, “2,4,6-trialkylphenyl substituted cyclopentane-1,3-dione” (Bayer Cropscience AG, priority 2006, dated 2012).

Test system: monocotyledonous and dicotyledonous weed and crop plants
Assay: Herbicidal post-emergence action (Example B), also comparison with known compounds
Format: in vivo
Design: key: % herbicidal effect: 0 = like control, 100 = plants died
Conditions: 100 g/ha, ALOMY
Method: (§1) Seeds of monocotyledonous and dicotyledonous weed and crop plants are placed into sandy loam in wood fiber pots or in plastic pots, covered with soil and cultivated in a greenhouse, during the vegetation period also outdoors outside of the greenhouse, under good growth conditions. 2 to 3 weeks after sowing, the test plants are treated at the one- to three-leaf stage. The test compounds, formulated as wettable powders (WP) or liquid (EC), are, in various dosages at a water application rate of 300 l/ha (converted), with wetting agent (0.2 to 0.3%) added, sprayed onto the plants and the surface of the soil. 3 to 4 weeks after the treatment of the test plants, the effect of the preparations is rated visually in comparison to untreated controls (herbicidal effect in percent (%): 100% effect=the plants have died, 0% effect=like control plants).

SMILES | ALOMY
CCc1cc(C)cc(CC)c1C1=C(OC(=O)C(C)(C)C)[C@H]2CCCC[C@H]2C1=O (relative stereo) [I-b-24] | 80
CCc1cc(C)cc(CC)c1C1=C(OC(=O)C(C)(C)C)[C@H]2CCCC[C@@H]2C1=O (relative stereo) [I-b-26] | 95
CCc1cc(C)cc(CC)c1C1=C(O)C2CCCCC2C1=O (stereo not shown) [I-a-9] | 98

Same assay, conditions: 100 g/ha, AVEFA

SMILES | AVEFA
CCc1cc(C)cc(CC)c1C1=C(OC(=O)C(C)(C)C)[C@H]2CCCC[C@H]2C1=O (relative stereo) [I-b-24] | 90
CCc1cc(C)cc(CC)c1C1=C(OC(=O)C(C)(C)C)[C@H]2CCCC[C@@H]2C1=O (relative stereo) [I-b-26] | 98
CCc1cc(C)cc(CC)c1C1=C(O)C2CCCCC2C1=O (stereo not shown) [I-a-9] | 100

Same assay, conditions: 100 g/ha, LOLMU

SMILES | LOLMU
CCc1cc(C)cc(CC)c1C1=C(OC(=O)C(C)(C)C)[C@H]2CCCC[C@H]2C1=O (relative stereo) [I-b-24] | 95
CCc1cc(C)cc(CC)c1C1=C(OC(=O)C(C)(C)C)[C@H]2CCCC[C@@H]2C1=O (relative stereo) [I-b-26] | 70
CCc1cc(C)cc(CC)c1C1=C(O)C2CCCCC2C1=O (stereo not shown) [I-a-9] | 99

Same assay, conditions: 200 g/ha, ALOMY

SMILES | ALOMY
CCc1cc(C)cc(CC)c1C1=C(OC(=O)C(C)(C)C)[C@H]2CCCC[C@H]2C1=O (relative stereo) [I-b-24] | 90
CCc1cc(C)cc(CC)c1C1=C(OC(=O)C(C)(C)C)[C@H]2CCCC[C@@H]2C1=O (relative stereo) [I-b-26] | 97
CCc1cc(C)cc(CC)c1C1=C(O)C2CCCCC2C1=O (stereo not shown) [I-a-9] | 98

Same assay, conditions: 200 g/ha, AVEFA

SMILES | AVEFA
CCc1cc(C)cc(CC)c1C1=C(OC(=O)C(C)(C)C)[C@H]2CCCC[C@H]2C1=O (relative stereo) [I-b-24] | 95
CCc1cc(C)cc(CC)c1C1=C(OC(=O)C(C)(C)C)[C@H]2CCCC[C@@H]2C1=O (relative stereo) [I-b-26] | 98
CCc1cc(C)cc(CC)c1C1=C(O)C2CCCCC2C1=O (stereo not shown) [I-a-9] | 100

Same assay, conditions: 200 g/ha, LOLMU

SMILES | LOLMU
CCc1cc(C)cc(CC)c1C1=C(OC(=O)C(C)(C)C)[C@H]2CCCC[C@H]2C1=O (relative stereo) [I-b-24] | 98
CCc1cc(C)cc(CC)c1C1=C(OC(=O)C(C)(C)C)[C@H]2CCCC[C@@H]2C1=O (relative stereo) [I-b-26] | 100
CCc1cc(C)cc(CC)c1C1=C(O)C2CCCCC2C1=O (stereo not shown) [I-a-9] | 99

Test system: crop plants (cereal)
Assay: Container trials with cereal in the greenhouse, mefenpyr 1 day prior to herbicide application (Example B, use of safeners)
Format: in vivo
Conditions: 10 days after application; 12.5 g of a.i./ha; without safener
Method: as §1, with “3 to 4 weeks after the treatment of the test plants, the effect of the preparations is rated visually in comparison to untreated controls (herbicidal effect in percent (%): 100% effect=the plants have died, 0% effect=like control plants).” left out
If it is additionally to be tested as to whether safeners can improve the plant compatibility of test substances in the case of crop plants, the following options are used for applying the safener: • seeds of the crop plants are, before sowing, dressed with the safener substance (the amount of safener stated in percent, based on the weight of the seed) • before the application of the test substances, the crop plants are sprayed with the safener at a certain application rate per hectare (usually 1 day before the application of the test substances) • the safener is applied together with the test substance as a tank mix (the amount of safener is stated in g/ha or as a ratio, based on the herbicide). • By comparing the effect of test substances on crop plants without or with safener treatment, it is possible to assess the effect of the safener substance.
Container Trials with Cereal in the Greenhouse
Mefenpyr 1 Day Prior to Herbicide Application

SMILES | Summer wheat observed (%)
CCc1cc(C)cc(CC)c1C1=C(OC(=O)C(C)C)[C@H]2CCCC[C@H]2C1=O (relative stereo) [I-b-23] | 30

Same assay, conditions: 10 days after application; 25 g of a.i./ha; without safener

SMILES | Summer barley observed (%) | Summer wheat observed (%)
CCc1cc(C)cc(CC)c1C1=C(O)C2CC3OC(C)(C)OC3CC2C1=O (mixture of isomers) [I-a-13] | 30 | 50
CCc1cc(C)cc(CC)c1C1=C(OC(=O)C(C)C)[C@H]2CCCC[C@H]2C1=O (relative stereo) [I-b-23] | 30 | 40
CCc1cc(C)cc(CC)c1C1=C(OC(=O)C(C)(C)C)[C@H]2CCCC[C@H]2C1=O (relative stereo) [I-b-24] |  | 30
CCc1cc(C)cc(C)c1C1=C(O)C2(CCCCC2)CC1=O [I-a-3] | 15 | 
CCc1cc(C)cc(C)c1C1=C(OC(=O)C(C)C)C2CCCCC2C1=O (stereo not shown) [I-b-16] | 20 | 20
CCc1cc(C)cc(CC)c1C1=C(OC(=O)COC)C2(CCCCC2)CC1=O [I-b-33] |  | 15
CCc1cc(CC)c(C2=C(OC(=O)COC)C3CCCCC3C2=O)c(CC)c1 (stereo not shown) [I-b-42] | 20 | 40
CCC(=O)OC1=C(c2c(CC)cc(C)cc2CC)C(=O)C2CCCCC12 (stereo not shown) [I-b-44] | 20 | 20
CCOC(=O)OC1=C(c2c(CC)cc(C)cc2CC)C(=O)C2CCCCC12 (stereo not shown) [I-c-8] | 15 | 50

Same assay, conditions: 10 days after application; 50 g of a.i./ha; without safener

SMILES | Summer barley observed (%) | Summer wheat observed (%)
CCc1cc(C)cc(CC)c1C1=C(O)C2CC3OC(C)(C)OC3CC2C1=O (mixture of isomers) [I-a-13] | 50 | 80
CCc1cc(C)cc(CC)c1C1=C(OC(=O)C(C)C)[C@H]2CCCC[C@H]2C1=O (relative stereo) [I-b-23] | 60 | 70
CCc1cc(C)cc(CC)c1C1=C(OC(=O)C(C)(C)C)[C@H]2CCCC[C@H]2C1=O (relative stereo) [I-b-24] | 20 | 60
CCc1cc(C)cc(C)c1C1=C(O)C2(CCCCC2)CC1=O [I-a-3] | 20 | 
CCc1cc(CC)c(C2=C(O)C3CCCCC3C2=O)c(CC)c1 (stereo not shown) [I-a-15] | 20 | 20
CCc1cc(C)cc(C)c1C1=C(OC(=O)C(C)C)C2CCCCC2C1=O (stereo not shown) [I-b-16] | 40 | 50
CCc1cc(C)cc(CC)c1C1=C(OC(=O)COC)C2(CCCCC2)CC1=O [I-b-33] |  | 30
CCc1cc(CC)c(C2=C(OC(=O)COC)C3CCCCC3C2=O)c(CC)c1 (stereo not shown) [I-b-42] | 40 | 50
CCC(=O)OC1=C(c2c(CC)cc(C)cc2CC)C(=O)C2CCCCC12 (stereo not shown) [I-b-44] | 40 | 40
CCOC(=O)OC1=C(c2c(CC)cc(C)cc2CC)C(=O)C2CCCCC12 (stereo not shown) [I-c-8] | 20 | 70

Same assay, conditions: 10 days after application; 100 g of a.i./ha; without safener

SMILES | Summer barley observed (%) | Summer wheat observed (%)
CCc1cc(C)cc(CC)c1C1=C(O)C2CC3OC(C)(C)OC3CC2C1=O (mixture of isomers) [I-a-13] | 60 | 80
CCc1cc(C)cc(CC)c1C1=C(OC(=O)C(C)C)[C@H]2CCCC[C@H]2C1=O (relative stereo) [I-b-23] | 60 | 80
CCc1cc(C)cc(CC)c1C1=C(OC(=O)C(C)(C)C)[C@H]2CCCC[C@H]2C1=O (relative stereo) [I-b-24] | 50 | 65
CCc1cc(CC)c(C2=C(O)C3CCCCC3C2=O)c(CC)c1 (stereo not shown) [I-a-15] | 30 | 30
CCc1cc(C)cc(C)c1C1=C(OC(=O)C(C)C)C2CCCCC2C1=O (stereo not shown) [I-b-16] | 60 | 60
CCc1cc(C)cc(CC)c1C1=C(OC(=O)COC)C2(CCCCC2)CC1=O [I-b-33] |  | 65
CCc1cc(CC)c(C2=C(OC(=O)COC)C3CCCCC3C2=O)c(CC)c1 (stereo not shown) [I-b-42] | 50 | 50
CCC(=O)OC1=C(c2c(CC)cc(C)cc2CC)C(=O)C2CCCCC12 (stereo not shown) [I-b-44] | 40 | 40
CCOC(=O)OC1=C(c2c(CC)cc(C)cc2CC)C(=O)C2CCCCC12 (stereo not shown) [I-c-8] | 30 | 80

Same assay, conditions: 10 days after application; 200 g of a.i./ha; without safener

SMILES | Summer barley observed (%) | Summer wheat observed (%)
CCc1cc(C)cc(CC)c1C1=C(OC(=O)C(C)(C)C)[C@H]2CCCC[C@H]2C1=O (relative stereo) [I-b-24] | 60 | 70

Same assay, conditions: 28 days after application; 25 g of a.i./ha; without safener

SMILES | Summer wheat observed (%) | Summer barley observed (%)
CCc1cc(C)cc(C)c1C1=C(O)C2(CCCCC2)CC1=O [I-a-3] | 25 | 
CCc1cc(C)cc(CC)c1C1=C(O)C2CCCCC2C1=O (stereo not shown) [I-a-9] | 5 | 20

Same assay, conditions: 28 days after application; 50 g of a.i./ha; without safener

SMILES | Summer barley observed (%) | Summer wheat observed (%)
CCc1cc(C)cc(CC)c1C1=C(OC(=O)C(C)(C)C)[C@H]2CCCC[C@@H]2C1=O (relative stereo) [I-b-26] | 20 | 15
CCc1cc(C)cc(C)c1C1=C(O)C2(CCCCC2)CC1=O [I-a-3] |  | 25
CCc1cc(C)cc(CC)c1C1=C(O)C2CCCCC2C1=O (stereo not shown) [I-a-9] | 50 | 60

Same assay, conditions: 28 days after application; 100 g of a.i./ha; without safener

SMILES | Summer barley observed (%) | Summer wheat observed (%)
CCc1cc(C)cc(CC)c1C1=C(OC(=O)C(C)(C)C)[C@H]2CCCC[C@@H]2C1=O (relative stereo) [I-b-26] | 80 | 70
CCc1cc(C)cc(CC)c1C1=C(O)C2CCCCC2C1=O (stereo not shown) [I-a-9] |  | 60
